Measurements taken from US8491897B2, “Treatment of neuropathic pain using anti-thrombospondin antibodies” (The Board of Trustees of the Leland Stanford Junior …, priority 2007, dated 2013).
“Also recorded” adds a separate entry of the source.

Experiments:
barrel cortex = assay: Lesion-induced barrel cortex plasticity assay in neonatal mice; type: in vivo
Text: Understanding how the brain remodels its neuronal networks has been a major goal of neurobiology, as these processes underlie learning, memory and recovery from injury. Is astrocyte-induced synapse formation involved in remodeling neural circuits during development? To explore this question a well-established developmental plasticity paradigm, ‘the barrel cortex plasticity’ assay, was used. The nerves that innervate the major whiskers on the snout of the mouse project to the brain as a topographically ordered “somatotopic” map where afferent axons and target cells form ordered modules that recapitulate the structural organization seen on the whisker pad (Erzurumlu et al., The Anatomical Record 288:121-134, 2006). First, neurons of the trigeminal nerve innervate the mystacial vibrissae (whiskers) and send projections […]. These projections then form synapses at the brainstem (barrelettes) and their afferents then project and synapse at the thalamus (barreloids). […]
Two groups of neonatal mice were injected either with GBP or an equal volume of saline daily starting at P0 until P7. […] The mice were then sacrificed at P7 and their barrel structure corresponding to both the unlesioned “control” hemisphere and the lesioned hemisphere were analyzed. […]

naive rats = assay: TSP4-induced behavioral hypersensitivity in naive rats (paw withdrawal threshold, von Frey); type: in vivo, rat; settings: 1 mg/rat bolus i.t., three days after TSP4 (45 ug/rat)
RGCs = settings: culture media containing GBP
[1] = system: glutamatergic excitatory synapses in the cortex; assay: Synapse assay on mouse brain sections (VGlut2/PSD95 co-localized puncta in cortex) after GBP injection; type: in vivo, mice
Protocol: To determine whether GBP similarly blocks synapse formation in vivo, neonatal mice were injected with either GBP or saline, for the first postnatal week, which coincides with the initiation of synapse formation in the brain (see Experimental Procedures). […] At this age P7 glutamatergic synapses in the cortex are predominantly VGlut2 positive (Miyazaki et al., The Eur. J. of Neuroscience, 17:2563-2572, 2003). Therefore, co-immunostaining of sagital brain sections from (P7) saline or GBP-injected, mice was carried out with antibodies against VGlut2 and PSD95 and the number of co-localized pre- and post-synaptic puncta was quantified to determine synaptic density in the cortex of these mice. […] This difference was mainly due to a severe decrease in synapse number in half of the GBP injected animals. […] GBP injection affected both VGlut2 and PSD95 puncta by reducing their number, size, and co-localization (FIG. 7E) similar to its effect on synaptic puncta in vitro (FIG. 7A). […] It is interesting that the effect of GBP in vivo is an “all or none” effect rather than a gradual decrease in synapse number, and that only 50% of the mice responded to GBP injection. This could be due to a critical threshold concentration of GBP necessary to be effective in blocking synapse formation, which might only be achieved in some of the mice. In three repeated experiments, however, we observed only half of the mice were affected by GBP, even when we increased the total dosage and frequency from once a day to three times per day (see below and Experimental Procedures), and even though an inbred strain of mice was used.
Brains were immersed in 4% paraformaldehyde (PFA), fixed overnight at 4° C., and cryo-protected in 30% sucrose. For synaptic staining, tissue was embedded in a 2:1 mixture of 20% sucrose:OCT in PBS, and cryo-sectioned (12 μm). Sections were dried at 37° C., washed three times in PBS, and blocked with 20% normal goat serum (NGS, Invitrogen) in PBS 1 hr. Primary antibodies were diluted in PBS with 0.3% triton and 10% NGS as follows: PSD95 (Zymed, rabbit, 1:500) and VGlut1 and VGlut2 (Chemicon, guinea pig, 1:2500) incubated overnight at 4° C. […]
Three independent sagital brain sections per animal were stained with pre- and post-synaptic markers and 5 μm confocal scans were performed (optical section width 0.38 μm, 14 optical sections each) at the cortex. […] Merged single optical section images at 1 μm intervals were analyzed using the ImageJ-puncta analyzer option to count for number of co-localized pre- and post-synaptic puncta (5 optical sections per brain section and 15 total images per brain). Average synaptic density per imaged area was calculated for each condition. […]

NCC1(CC(=O)O)CCCCC1 [Gabapentin, 1-(aminomethyl)cyclohexaneacetic acid]
barrel formation on unlesioned control side (barrel cortex; daily injection P0 to P7, listed as GBP): typical barrels formed on the control side; also recorded: did not affect the barrel cortex formation | proportion of injected mice with atypical/aberrant barrel cortex plasticity response (barrel cortex; lesioned side, daily injection P0 to P7, C-row whisker lesion at P1): 50% | effect on TSP4-induced behavioral hypersensitivity (naive rats): blocked the pain-inducing effects of TSP4 | RGC survival (RGCs): 66.5±4.1% | proportion of injected mice that responded (severe reduction of synaptic puncta) ([1]; P7 mice): 50% | density of VGlut2/PSD95 excitatory synapses in the cerebral cortex ([1]; P7 mice injected i.p. daily in first postnatal week, vs saline, listed as GBP): significant decrease in the density of excitatory synapses; also recorded: significant decrease in the number of VGlut2-PSD95 synapses | VGlut2/PSD95 synaptic density relative to saline injected values ([1]; in the half of the mice that responded): less than 10% | number of neurons ([1]; responding mice): no apparent effect on the number of neurons
